Source: patent US6908919B2, “Substituted polycyclic aryl and heteroaryl pyrazinones useful for selective inhibition of the coagulation cascade” (Pharmacia Corporation, priority 1999, dated 2005)
Where two headings read alike, the source gives them in different places.

Biological target: Human factor Xa (Homo sapiens, UniProt P00742)
Assay: Xa Assay
Assay type: biochemical
Set-up: purchased Enzyme Research Laboratories, South Bend Ind

Chain of Human factor Xa (P00742 41-179 limits assumed): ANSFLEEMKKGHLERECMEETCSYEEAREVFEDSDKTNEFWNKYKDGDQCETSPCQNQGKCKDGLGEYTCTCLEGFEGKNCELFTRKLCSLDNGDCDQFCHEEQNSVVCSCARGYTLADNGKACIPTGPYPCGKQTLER
Chain of Human factor Xa (P00742 235-488 limits assumed): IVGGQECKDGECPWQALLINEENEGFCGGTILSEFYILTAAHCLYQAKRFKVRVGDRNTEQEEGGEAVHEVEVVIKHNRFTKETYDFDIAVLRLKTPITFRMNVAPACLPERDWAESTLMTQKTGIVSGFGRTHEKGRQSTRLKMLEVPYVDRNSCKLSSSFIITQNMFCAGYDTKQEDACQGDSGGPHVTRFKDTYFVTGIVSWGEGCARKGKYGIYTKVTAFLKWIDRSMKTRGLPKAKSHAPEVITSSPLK

| SMILES | % Inhibition Factor Xa (30 µM) (at 30 µM inhibitor) | other results |
| --- | --- | --- |
| N=C(N)c1ccc(CNC(=O)Cn2c(-c3ccccc3)c(Cl)nc(NC3CCCCCC3)c2=O)cc1 [1507-29] | 4% | – |
| N=C(N)c1ccc(CNC(=O)Cn2c(-c3ccc(Cl)cc3)c(Cl)nc(NCCc3ccc(Cl)cc3)c2=O)cc1 [1471-18] | 26% | – |
| Cc1cccc(-c2cnc(NCCc3ccccc3)c(=O)n2CC(=O)NCc2ccc(C(=N)N)cc2)c1 [Example 85] | 42% @ 30 | – |
| CCCCCNc1nc(Cl)c(-c2ccccc2)n(CC(=O)NCc2ccc(C(=N)N)cc2)c1=O [Example 1517-48] | – | % Inhibition Factor Xa (30 µM) (at 30 µM): 0% |
| CCCNc1nc(Cl)c(-c2cccc(N)c2)n(CC(=O)NCc2ccc(C(=N)N)cc2F)c1=O [1543-35] | – | % Inhibition Factor Xa (30 µM) (at 30 µM): 8% |
| N=C(N)c1ccc(CNC(=O)Cn2c(-c3cccc(N)c3)c(Cl)nc(NCCCO)c2=O)cc1 [1543-13] | – | % Inhibition Factor Xa (30 µM) (at 30 µM): 12% |
| Cc1c(Cl)nc(NCCN2CCOCC2)c(=O)n1CC(=O)NCc1ccc(C(=N)N)cc1 [1471-4] | 0% | – |
| N=C(N)c1ccc(CNC(=O)Cn2c(-c3ccccc3)c(Cl)nc(NCc3ccccc3OC(F)(F)F)c2=O)cc1 [1512-42] | 1% | – |
| O=C(Cn1c(-c2ccc(-c3ccccc3)cc2)c(Cl)nc(NCCc2cccc(Cl)c2)c1=O)NCCc1cccnc1 [Example E-0116] | – | % Inhibition Factor Xa (100 µM): 4% |
| N=C(N)c1ccc(CNC(=O)Cn2c(-c3ccc4c(c3)OCO4)c(Cl)nc(NCCc3ccc(Cl)cc3)c2=O)cc1 [1471-42] | 15% | – |
| N=C(N)c1ccc(CNC(=O)Cn2c(-c3ccccc3)c(Cl)nc(NCc3cc(F)c(F)c(F)c3)c2=O)cc1 [1512-32] | 5% | – |
| COc1cccc(CNc2nc(Cl)c(-c3ccccc3)n(CC(=O)NCc3ccc(C(=N)N)cc3)c2=O)c1OC [1512-02] | 3% | – |
| O=C(Cn1c(-c2ccc(Cl)cc2)c(Cl)nc(NCCc2cccc(Cl)c2)c1=O)NCCc1ccncc1 [Example E-0027] | – | % Inhibition Factor Xa (100 µM) (inhibitor at 100 µM): 0% |
| N=C(N)c1ccc(CNC(=O)Cn2c(-c3cccc(Cl)c3)c(Cl)nc(NCc3ccccc3)c2=O)cc1 [1471-25] | 31% | – |
| N=C(N)c1ccc(CNC(=O)Cn2c(-c3cccc(N)c3)c(Cl)nc(NC3CCC3)c2=O)cc1F [Example 40] | 0% | – |
| C[C@H](C(=O)NCc1ccc(C(=N)N)cc1)n1c(-c2ccccc2)c(Cl)nc(NC2CCC2)c1=O [Example 1517-11] | 0% | – |
| N=C(N)c1ccc(CNC(=O)Cn2c(-c3ccsc3)c(Cl)nc(NCc3ccccc3)c2=O)cc1 [Example 1517-01] | 0% | – |
| N=C(N)c1ccc(CNC(=O)Cn2c(-c3ccccc3)c(Cl)nc(NCCc3cccc(C(F)(F)F)c3)c2=O)cc1 [1512-41] | 4% | – |
| CN(C)CCCNc1nc(Cl)c(-c2ccccc2)n(CC(=O)NCc2ccc(C(=N)N)cc2)c1=O [1507-47] | 19% | – |
| Nc1n[nH]c2ccc(CNC(=O)Cn3c(-c4ccccc4)cnc(NCCc4ccccc4)c3=O)cc12 [Example 38] | 22% | – |
| Cc1c(Cl)nc(NCCc2ccccc2)c(=O)n1CC(=O)NCc1ccc(C(=N)N)cc1 [1471-7] | 4% | – |
| N=C(N)c1ccc(CNC(=O)Cn2c(-c3cccc(N)c3)c(Cl)nc(NCCCCN3CCCC3)c2=O)cc1 [1543-21] | – | % Inhibition Factor Xa (30 µM) (at 30 µM): 27% |
| N=C(N)c1ccc(CNC(=O)Cn2c(-c3ccccc3)c(Cl)nc(NCc3cc(C(F)(F)F)ccc3F)c2=O)cc1 [1512-27] | 3% | – |
| N=C(N)c1ccc(CNC(=O)Cn2c(-c3ccccc3)c(Cl)nc(NCCc3ccc(Cl)c(Cl)c3)c2=O)cc1 [1507-44] | 9% | – |
| Cc1c(Cl)nc(NCCc2cccc(Cl)c2)c(=O)n1CC(=O)NCc1ccc(C(=N)N)cc1 [1471-6] | 14% | – |
